Experimental data taken from patent US20080194482A1, “Selective Apac2 Receptor Peptide Agonists” (priority 2005, published 2008).
Square brackets hold non-standard residues; d marks the D form. Peptide text beside a SMILES is read from it. * marks the point of attachment. Orn = NCCC[C@H](N)C(=O)O; Hexanoyl = CCCCCC(=O)*; Aib = CC(C)(N)C(=O)O

Key:
human VPAC2 [1] = target: T1, human VPAC2 (Homo sapiens, UniProt P41587); experiment: Filter binding assay, 125I-labeled VIP tracer, VPAC2 membranes; settings: read-out: Human VPAC2 Receptor Binding (IC50; nM)
T1 construct: expressed in transfected cells
T1 sequence (P41587 24-438): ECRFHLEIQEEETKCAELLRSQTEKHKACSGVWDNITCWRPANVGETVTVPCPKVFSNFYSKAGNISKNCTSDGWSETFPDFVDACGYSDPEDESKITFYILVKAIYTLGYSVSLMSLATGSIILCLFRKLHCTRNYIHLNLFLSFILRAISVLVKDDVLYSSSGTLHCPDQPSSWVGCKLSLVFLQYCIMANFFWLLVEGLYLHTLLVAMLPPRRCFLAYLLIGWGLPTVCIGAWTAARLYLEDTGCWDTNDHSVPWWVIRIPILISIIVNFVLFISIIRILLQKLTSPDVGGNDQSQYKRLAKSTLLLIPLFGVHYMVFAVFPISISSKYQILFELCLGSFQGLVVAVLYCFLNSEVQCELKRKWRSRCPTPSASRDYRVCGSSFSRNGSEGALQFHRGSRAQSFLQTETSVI

rat VPAC2 receptor = target: T2, rat VPAC2 receptor (Rattus norvegicus, UniProt P35000); experiment: DiscoveRx cAMP assay, in vitro potency at rat VPAC2 receptor; assay type: cell-based; settings: CHO-PO cells transiently transfected with rat VPAC2; cAMP generation; mean of two independent runs
T2 construct: expressed in transfected cells; host or cells: CHO-PO (transient, Lipofectamine)
T2 sequence (P35000 23-437): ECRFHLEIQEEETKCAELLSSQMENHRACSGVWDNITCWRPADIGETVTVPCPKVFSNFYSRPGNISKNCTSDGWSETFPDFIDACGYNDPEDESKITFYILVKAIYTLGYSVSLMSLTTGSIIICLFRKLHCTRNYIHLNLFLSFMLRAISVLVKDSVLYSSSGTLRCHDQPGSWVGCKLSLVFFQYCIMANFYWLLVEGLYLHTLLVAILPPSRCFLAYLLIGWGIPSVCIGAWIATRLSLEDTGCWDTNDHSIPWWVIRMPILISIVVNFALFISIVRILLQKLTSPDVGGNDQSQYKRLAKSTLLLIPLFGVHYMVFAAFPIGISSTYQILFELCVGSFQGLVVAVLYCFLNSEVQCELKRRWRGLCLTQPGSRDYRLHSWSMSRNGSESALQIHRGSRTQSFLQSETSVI

human VPAC1 = target: T3, human VPAC1 (Homo sapiens, UniProt P32241); experiment: Filter binding assay, 125I-labeled VIP tracer, VPAC1 membranes; settings: read-out: Human VPAC1 Receptor Binding (IC50; nM)
T3 construct: expressed in transfected cells
T3 sequence (P32241 31-457): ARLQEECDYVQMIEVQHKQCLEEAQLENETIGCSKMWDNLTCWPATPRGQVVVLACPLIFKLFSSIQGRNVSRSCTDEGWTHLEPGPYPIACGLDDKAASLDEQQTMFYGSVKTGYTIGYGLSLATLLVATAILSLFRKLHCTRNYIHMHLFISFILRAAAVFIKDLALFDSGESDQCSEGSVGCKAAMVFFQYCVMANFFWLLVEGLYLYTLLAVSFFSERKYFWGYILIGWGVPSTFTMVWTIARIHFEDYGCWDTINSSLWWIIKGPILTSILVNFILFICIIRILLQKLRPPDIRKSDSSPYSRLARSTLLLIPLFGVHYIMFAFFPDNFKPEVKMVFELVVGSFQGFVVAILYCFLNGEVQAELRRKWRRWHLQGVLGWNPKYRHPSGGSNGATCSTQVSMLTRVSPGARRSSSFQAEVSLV

human VPAC2 [2] = target: T1, human VPAC2; experiment: Alpha screen cAMP assay, in vitro potency at human VPAC2 receptor; assay type: cell-based; settings: cAMP generation; single result from two analyses in a single run, some values average of more than one experiment
Method: Alpha screen: Cells are washed in the culture flask once with PBS. Then, the cells are rinsed with enzyme free dissociation buffer. The dissociated cells are removed. The cells are then spun down and washed in stimulation buffer. For each data point, 50,000 cells suspended in stimulation buffer are used. To this buffer, Alpha screen acceptor beads are added along with the stimuli. This mixture is incubated for 60 minutes. Lysis buffer and Alpha screen donor beads are added and are incubated for 60 to 120 minutes. The Alpha screen signal (indicative of intracellular cAMP levels) is read in a suitable instrument (e.g. AlphaQuest from Perkin-Elmer). Steps including Alpha screen donor and acceptor beads are performed in reduced light. The EC50 for cAMP generation is calculated from the raw signal or is based on absolute cAMP levels as determined by a standard curve performed on each plate.
Results for each agonist are, at minimum, from two analyses performed in a single run. For some agonists, the results are the mean of more than one run. The tested peptide concentrations are: 10000, 1000, 100, 10, 3, 1, 0.1, 0.01, 0.003, 0.001, 0.0001 and 0.00001 nM.

rat VPAC1 receptor = target: T4, rat VPAC1 receptor (Rattus norvegicus, UniProt P30083); experiment: DiscoveRx cAMP assay, in vitro potency at rat VPAC1 receptor; assay type: cell-based; settings: CHO-PO cells transiently transfected with rat VPAC1; cAMP generation; mean of two independent runs
T4 construct: expressed in transfected cells; host or cells: CHO-PO (transient, Lipofectamine)
T4 sequence (P30083 31-459): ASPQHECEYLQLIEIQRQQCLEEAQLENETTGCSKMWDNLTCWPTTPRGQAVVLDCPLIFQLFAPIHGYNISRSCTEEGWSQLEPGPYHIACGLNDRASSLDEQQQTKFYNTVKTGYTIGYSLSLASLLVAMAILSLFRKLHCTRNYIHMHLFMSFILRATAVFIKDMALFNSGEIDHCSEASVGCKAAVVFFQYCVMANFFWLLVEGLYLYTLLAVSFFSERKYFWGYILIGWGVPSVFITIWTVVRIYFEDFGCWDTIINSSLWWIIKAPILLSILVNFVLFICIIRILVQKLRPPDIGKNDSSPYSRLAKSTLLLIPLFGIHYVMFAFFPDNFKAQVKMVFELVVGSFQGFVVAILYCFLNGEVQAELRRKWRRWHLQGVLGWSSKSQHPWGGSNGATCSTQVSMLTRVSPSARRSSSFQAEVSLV
Method: DiscoveRx: CHO-PO cells are transiently transfected with rat VPAC1 or VPAC2 receptor DNA using commercially available transfection reagents (Lipofectamine from Invitrogen). The cells are seeded at a density of 10,000/well in a 96-well plate and are allowed to grow for 3 days in […] culture medium. At day 3, the assay is performed.
On the day of the experiment, the medium is removed. Also, the cells are washed twice. The cells are incubated in assay buffer plus IBMX for 15 minutes at room temperature. Afterwards, the stimuli are added and are dissolved in assay buffer. The stimuli are present for 30 minutes. Then, the assay buffer is gently removed. The cell lysis reagent of the DiscoveRx cAMP kit is added. Thereafter, the standard protocol for developing the cAMP signal as described by the manufacturer is used (DiscoveRx Inc., USA). EC50 values for cAMP generation are calculated from the raw signal or are based on absolute cAMP levels as determined by a standard curve performed on each plate.
Results for each agonist are the mean of two independent runs. Rat VPAC1 and VPAC2 results are only generated using the DiscoveRx assay.

[3] = Rat serum stability (activity remaining, CHO-VPAC2 DiscoveRx read-out); assay type: in vitro ADME
How it was run: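 Peptides preincubated overnight in rat serum at 37 °C without aprotinin versus 4 °C with aprotinin, then tested as 11-point 5× dilutions in duplicate on CHO-VPAC2 cells, 30 min at RT. cAMP measured by DiscoveRx kit against standards; EC50 derived for each aliquot.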

human PAC1 = target: T5, human PAC1 (Homo sapiens, UniProt P41586); experiment: Filter binding assay, 125I-labeled PACAP-27 tracer, PAC1 membranes; settings: read-out: Human PAC1 Receptor Binding (IC50; nM)
T5 construct: expressed in transfected cells
T5 sequence (P41586 21-468): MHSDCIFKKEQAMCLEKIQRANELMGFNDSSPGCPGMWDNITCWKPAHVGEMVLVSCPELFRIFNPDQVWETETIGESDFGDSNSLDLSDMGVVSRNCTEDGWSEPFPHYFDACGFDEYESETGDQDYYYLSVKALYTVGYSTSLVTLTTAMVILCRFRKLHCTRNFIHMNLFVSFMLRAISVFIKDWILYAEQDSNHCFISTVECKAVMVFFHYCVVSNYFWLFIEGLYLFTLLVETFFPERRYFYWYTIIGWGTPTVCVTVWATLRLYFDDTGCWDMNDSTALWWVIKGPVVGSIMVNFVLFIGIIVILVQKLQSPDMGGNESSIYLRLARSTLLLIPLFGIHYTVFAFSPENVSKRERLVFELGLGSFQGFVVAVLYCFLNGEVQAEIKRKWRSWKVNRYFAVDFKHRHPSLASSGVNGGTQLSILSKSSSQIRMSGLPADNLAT
Method: For this assay, the solutions and equipment include:
Presoak solution: 0.5% Polyethyleneamine in Aqua dest
Buffer for flushing filter plates: 25 mM HEPES pH 7.4
Blocking buffer: 25 mM HEPES pH 7.4; 0.2% protease free BSA
Assay buffer: 25 mM HEPES pH 7.4; 0.5% protease free BSA
Dilution and assay plate: PS-Microplate, U form
Filtration Plate: Multiscreen FB Opaque Plate; 1.0 μM Type B Glasfiber filter
In order to prepare the filter plates, the presoak solution is aspirated by vacuum filtration. The plates are flushed twice with 200 μL flush buffer. 200 μL blocking buffer is added to the filter plate. The filter plate is then incubated with 200 μL presoak solution for 1 hour at room temperature.
The assay plate is filled with 25 μL assay buffer, 25 μL membranes (2.5 μg) suspended in assay buffer, 25 μL compound (agonist) in assay buffer, and 25 μL tracer (about 40000 cpm) in assay buffer. The filled plate is incubated for 1 hour with shaking.
The transfer from assay plate to filter plate is conducted. The blocking buffer is aspirated by vacuum filtration and washed two times with flush buffer. 90 μL is transferred from the assay plate to the filter plate. The 90 μL transferred from assay plate is aspirated and washed three times with 200 μL flush buffer. The plastic support is removed. It is dried for 1 hour at 60° C. 30 μL Microscint is added. The count is performed.

| Compound | IC50 (human VPAC2 [1]) | EC50 (rat VPAC2 receptor) | IC50 (human VPAC1) | EC50 (human VPAC2 [2]) | EC50 (rat VPAC1 receptor) | Rat Serum Stability (estimated purity in % after overnight incub.) [3] | IC50 (human PAC1) |
| --- | --- | --- | --- | --- | --- | --- | --- |
| CCCCCC(=O)N[C@@H](Cc1c[nH]cn1)C(=O)N[C@@H](CO)C(=O)N[C@@H](CC(=O)O)C(=O)N[C@@H](C)C(=O)N[C@H](C(=O)N[C@@H](Cc1ccccc1)C(=O)N[C@H](C(=O)N[C@@H](CCC(=O)O)C(=O)N[C@@H](CCC(N)=O)C(=O)N[C@@H](Cc1ccc(OC)cc1)C(=O)N[C@H](C(=O)N[C@@H](CCCN)C(=O)N[C@@H](CC(C)C)C(=O)N[C@@H](CCCNC(=N)N)C(=O)NC(C)(C)C(=O)N[C@@H](CCC(N)=O)C(=O)N[C@H](C(=O)N[C@@H](C)C(=O)N[C@@H](C)C(=O)NC(C)(C)C(=O)N[C@@H](CCCN)C(=O)N[C@@H](Cc1ccc(O)cc1)C(=O)N[C@@H](CC(C)C)C(=O)N[C@@H](CCC(N)=O)C(=O)N[C@@H](CO)C(=O)N[C@H](C(=O)N[C@@H](CCCN)C(=O)N[C@@H](CCCN)C(=O)NCC(=O)NCC(=O)N1CCC[C@H]1C(=O)N[C@@H](CO)C(=O)N[C@@H](CO)C(=O)NCC(=O)N[C@@H](C)C(=O)N1CCC[C@H]1C(=O)N1CCC[C@H]1C(=O)N1CCC[C@H]1C(=O)N[C@@H](CO)C(N)=O)[C@@H](C)CC)C(C)C)[C@@H](C)O)[C@@H](C)O)C(C)C [Agonist P488] (Hexanoyl-HSDAVFTEQY(Me)T[Orn]LR[Aib]QVAA[Aib][Orn]YLQSI[Orn][Orn]GGPSSGAPPPS-NH2) | 0.64 nM | 0.09 nM | > 1000 nM | 0.19 nM | 1.66 nM | 193.17% |  |
| CCCCCC(=O)N[C@@H](Cc1c[nH]cn1)C(=O)N[C@@H](CO)C(=O)N[C@@H](CC(=O)O)C(=O)N[C@@H](C)C(=O)N[C@H](C(=O)N[C@@H](Cc1ccccc1)C(=O)N[C@H](C(=O)N[C@@H](CC(=O)O)C(=O)N[C@@H](CCC(N)=O)C(=O)N[C@@H](Cc1ccc(O)cc1)C(=O)N[C@H](C(=O)N[C@@H](CCCN)C(=O)N[C@@H](CC(C)C)C(=O)N[C@@H](CCCNC(=N)N)C(=O)NC(C)(C)C(=O)N[C@@H](CCC(N)=O)C(=O)N[C@@H](CC(C)C)C(=O)N[C@@H](C)C(=O)N[C@@H](C)C(=O)NC(C)(C)C(=O)N[C@@H](CCCN)C(=O)N[C@@H](Cc1ccc(O)cc1)C(=O)N[C@@H](CC(C)C)C(=O)N[C@@H](CCC(N)=O)C(=O)N[C@@H](CO)C(=O)N[C@H](C(=O)N[C@@H](CCCN)C(=O)N[C@@H](CCCN)C(=O)NCC(=O)NCC(=O)N1CCC[C@H]1C(=O)N[C@@H](CO)C(=O)N[C@@H](CO)C(=O)NCC(=O)N[C@@H](C)C(=O)N1CCC[C@H]1C(=O)N1CCC[C@H]1C(=O)N1CCC[C@H]1C(=O)N[C@@H](CO)C(=O)O)[C@@H](C)CC)[C@@H](C)O)[C@@H](C)O)C(C)C [Agonist P395] (Hexanoyl-HSDAVFTDQYT[Orn]LR[Aib]QLAA[Aib][Orn]YLQSI[Orn][Orn]GGPSSGAPPPS-OH; C-terminus assumed) | 0.24 nM | 0.03 nM |  | 0.15 nM | 0.35 nM |  | > 25000 nM |
